Results published in patent publication US4010264A, “7-[3-Substituted isoxazol-5-yl]-acetamido-cephalosporanic acids and their anti-bacterial use” (Koninklijke Nederlandsche Gist-en Spiritusfabriek N.V., priority 1970, dated 1977).
In brackets after ≈: the same amount, converted by molar mass. Counter-ions that a name gives are not always drawn. Like-named read-outs stand apart in the source and are kept apart here.

Columns and labels:
[1] = system: Bacillus subtilis ATCC 6633; experiment: MIC, agar serial dilution test; format: cell-based
[2] = system: Staphylococcus aureus A55; experiment: MIC, agar serial dilution test; format: cell-based
[3] = system: Staphylococcus aureus A321; experiment: MIC, agar serial dilution test; format: cell-based
[4] = system: Streptococcus haemolyticus A266; experiment: MIC, agar serial dilution test; format: cell-based
[5] = system: Streptococcus faecalis L 80; experiment: MIC, agar serial dilution test; format: cell-based; details: Enterococcus faecalis
[6] = system: Diplococcus pneumoniae L 54; experiment: MIC, agar serial dilution test; format: cell-based; details: Streptococcus pneumoniae
[7] = system: Brucella melitensis A488; experiment: microbe, parasite or virus in culture; format: cell-based; details: A488, 24 h
[8] = system: Pasteurella multocida A723; experiment: MIC, agar serial dilution test; format: cell-based
[9] = system: Klebsiella pneumoniae A809; experiment: MIC, agar serial dilution test; format: cell-based
[10] = system: Escherichia coli 65161; experiment: protection test in mice, Escherichia coli; format: in vivo, female mice (Swiss SPF); details: ip, 168 h; Escherichia coli 65161 i.p.; method of administration intraperitoneal
[11] = blood (serum) contents after intramuscular administration in rabbits; format: in vivo, rabbits (Nieuw Zeelander); details: rabbit, im, 50 mg/kg intramuscular, average, read-out: Serum level
Method: (§1) c. […] The rabbits were provided with "Cunicon" and water ad libitum. Each test group consisted of 3 rabbits. The dose was 50 mg/kg using water as the vehicle. […] The contents of the compound in the samples were determined microbiologically (only microbiologically detected amounts, i.e. anti-bacterially active concentrations only have been indicated).

[12] = secretion of compound in urine after intramuscular administration in rabbits; format: in vivo, rabbits (Nieuw Zeelander); details: rabbit, im, 50 mg/kg intramuscular, average, read-out: Secretion of compound in urine in % of the administered dose
Method: as §1

[13] = percentages of bound serum by ultrafiltration and dialysis; format: in vitro ADME; details: read-out: percentage of bound serum (converted)
[14] = in vivo; details: mouse, ip
[15] = system: Staphylococcus aureus A355 (penicillinase-producing); experiment: MIC, agar serial dilution test; details: 24 h
[16] = system: Staphylococcus aureus L160a (penicillinase-producing); experiment: MIC, agar serial dilution test; details: 24 h
[17] = system: Staphylococcus aureus A 321; experiment: in vivo infection test in mice; details: A321, in Mus musculus
[18] = system: Staphylococcus aureus A 2001; experiment: in vivo infection test in mice; details: A2001, in Mus musculus
[19] = system: Staphylococcus aureus A 2000; experiment: in vivo infection test in mice; details: A2000, in Mus musculus
[20] = system: Salmonella typhi murium R 172; experiment: in vivo infection test in mice; details: Salmonella enterica, in Mus musculus
[21] = system: Pseudomonas aeruginosa A 1058; experiment: in vivo infection test in mice; details: A1058, in Mus musculus
[22] = system: Proteus mirabilis O.T.; experiment: in vivo infection test in mice; details: in Mus musculus
[23] = system: Staphylococcus aureus A 2001; experiment: protection test in mice, Staphylococcus aureus; details: Staphylococcus aureus, A2001, in Mus musculus, sc, 168 h
[24] = system: Staphylococcus aureus A 321; experiment: prophylactic experiment against an infection in mice; format: in vivo, female mice (Swiss)
Description: B. Activity of the compound of example III in a prophylactic experiment against an infection with Staphylococcus aureus A 321. […] Administered doses: Tested compound dissolved in physiological NaCl-solution. Group A: one dose administered four hours before the intraperitoneal infection Group B: one dose administered two hours before the intraperitoneal infection.

[25] = in vivo; set-up: species or system rabbits; details: rabbit, im, 50 mg/kg; for blood level: 4 h
Description: C. Serum levels of the tested compound and dicloxacillin.

[26] = system: serum protein; experiment: binding to serum protein; format: in vitro ADME
[27] = binding to serum protein; format: in vitro ADME; details: serum protein; read-out: extent bound to serum protein
[28] = system: test organisms; experiment: M.I.C. comparison with dicloxacillin; format: cell-based; details: compared with dicloxacillin
Method: Peak blood levels of the two drugs were reached after 1 hour with the tested compound giving levels of 5.4 μg/ml and dicloxacillin 27 μg/ml. After 4 hours, these levels were 2.2 μg/ml and 7.1 μg/ml respectively. […] However, the M.I.C. values for the tested compound were approximately 5 - 10 times less so that the overall result was better and this was reflected in the in vivo results.

[29] = ATCC6633, Bacillus subtilis ATCC 6633, 24 hours at 37° C, read-out: MIC
[30] = Staphylococcus aureus A55, 24 hours at 37° C, read-out: MIC
[31] = Staphylococcus aureus A321, 24 hours at 37° C, read-out: MIC
[32] = Streptococcus haemolyticus A266, 24 hours at 37° C, read-out: MIC
[33] = L80, Streptococcus faecalis L 80, 24 hours at 37° C, read-out: MIC
[34] = L54, Diplococcus pneumoniae L 54, 24 hours at 37° C, read-out: MIC
[35] = Pasteurella multocida A723, 24 hours at 37° C, read-out: MIC
[36] = Klebsiella pneumoniae A809, 24 hours at 37° C, read-out: MIC
[37] = A321, ip, 2 h, Group B: one dose two hours before i.p. infection, administration i.p.
[38] = A321, ip, 4 h, Group A: one dose four hours before i.p. infection, administration i.p.
[39] = A321, po, 2 h, Group B: one dose two hours before i.p. infection, administration per os
[40] = A321, po, 4 h, Group A: one dose four hours before i.p. infection, administration per os

## CC(=O)OCC1=C(C(=O)O)N2C(=O)[C@@H](NC(=O)Cc3cccs3)[C@H]2SC1 [Cephalotin, reference compound]
[1]; Bacillus subtilis, ATCC6633, 24 h
  MIC: 0.03 µg/mL (≈ 0.0757 µM)
[2]; Staphylococcus aureus, A55, 24 h
  MIC: 0.25 µg/mL (≈ 0.631 µM)
[3]; Staphylococcus aureus, A321, 24 h
  MIC: 0.25 µg/mL (≈ 0.631 µM)
[4]; Streptococcus, A266, 24 h
  MIC: 0.06 µg/mL (≈ 0.151 µM)
[5]; L80, 24 h
  MIC: 25 µg/mL (≈ 63.1 µM)
[6]; L54, 24 h
  MIC: 0.25 µg/mL (≈ 0.631 µM)
[7]
  MIC: 6 µg/mL (≈ 15.1 µM)
[8]; Pasteurella multocida, A723, 24 h
  MIC: 0.25 µg/mL (≈ 0.631 µM)
[9]; Klebsiella pneumoniae, A809, 24 h
  MIC: 0.5 µg/mL (≈ 1.26 µM)
[10]
  ED50: 115 mg/kg
[11]; after 1/2 hr.
  concentration at 0.5 h: 33900 ng/mL
[11]; after 1/4 hr.
  concentration at 0.25 h: 73.8 µg/mL
[11]; after 1 hr.
  concentration at 1 h: 8500 ng/mL
[11]; after 2 hrs.
  concentration at 2 h: < 1100 ng/mL
[11]; after 4 hrs.
  concentration at 4 h: < 1000 ng/mL
[12]; after 6 hrs.
  dose excreted at 6 h: 22.2%
[12]; after 27 hrs.
  dose excreted at 27 h: 26.9%
[13]; dialysis
  fraction unbound: ~0.3
[13]; ultrafiltration
  fraction unbound: ~0.3
[14]
  LD50: 6000 to 8000 mg/kg
[15]
  MIC: 1 µg/mL (≈ 2.52 µM)
[16]
  MIC: 1 µg/mL (≈ 2.52 µM)
[17]; ip
  ED50: 1.9 mg/kg
[17]; po
  ED50: 14.7 mg/kg
[17]; sc
  ED50: 16.2 mg/kg
[18]; ip
  ED50: 27.1 mg/kg
[18]; po
  ED50: > 68.1 mg/kg
[19]; ip
  ED50: 20 mg/kg
[19]; po
  ED50: 147 mg/kg
[19]; sc
  ED50: 110 mg/kg
[20]; ip
  ED50: 79.4 mg/kg
[20]; sc
  ED50: ~200 mg/kg
[21]; ip
  ED50: > 215 mg/kg
[21]; sc
  ED50: > 215 mg/kg
[22]; ip
  ED50: 79.4 mg/kg
[22]; sc
  ED50: 68.1 mg/kg
[23]
  ED50: 43 mg/kg

## Cc1onc(-c2c(Cl)cccc2Cl)c1C(=O)N[C@@H]1C(=O)N2[C@@H]1SC(C)(C)[C@@H]2C(=O)O [Dicloxacillin, reference compound]
[1]; [29]
  MIC: 0.12 µg/mL (≈ 0.255 µM)
[2]; [30]
  MIC: 0.06 µg/mL (≈ 0.128 µM)
[3]; [31]
  MIC: 0.12 µg/mL (≈ 0.255 µM)
[4]; [32]
  MIC: 0.06 µg/mL (≈ 0.128 µM)
[5]; [33]
  MIC: 12.5 µg/mL (≈ 26.6 µM)
[6]; [34]
  MIC: 0.5 µg/mL (≈ 1.06 µM)
[7]
  MIC: > 100 µg/mL
[8]; [35]
  MIC: 6 µg/mL (≈ 12.8 µM)
[9]; [36]
  MIC: 25 µg/mL (≈ 53.2 µM)
[24]; [37]
  ED50: 46.5 to 100 mg/kg
[24]; [38]
  ED50: < 21.5 mg/kg
[24]; [39]
  ED50: 215 to 465 mg/kg
[24]; [40]
  ED50: 46.5 to 100 mg/kg
[25]
  Cmax at 1 h: 27000 ng/mL
  Tmax: 1 h
  concentration at 1 h: 27000 ng/mL
  concentration at 2 h: 18800 ng/mL
  concentration at 4 h: 7100 ng/mL
  blood level: 7.1 µg/mL
[26]; serum protein
  binding to serum protein (in words): almost completely bound to serum protein
[15]
  MIC: 0.5 µg/mL (≈ 1.06 µM)
[16]
  MIC: 0.25 µg/mL (≈ 0.532 µM)
[17]; po
  ED50: 92.6 mg/kg
[17]; sc
  ED50: 126 mg/kg
[18]; ip
  ED50: 1.71 mg/kg
[18]; po
  ED50: 110 mg/kg
[18]; sc
  ED50: 133 mg/kg
[19]; ip
  ED50: 5.84 mg/kg
[19]; po
  ED50: 92.6 mg/kg
[19]; sc
  ED50: 92.6 mg/kg

## CC(=O)OCC1=C(C(=O)O)N2C(=O)C(NC(=O)Cc3cc(-c4c(Cl)cccc4Cl)no3)C2SC1 (centres unmarked) [Example III, Sodium salt of 7-{[3-(2,6-dichlorophenyl)-isoxazol-5-yl]acetamido}cephalosporanic acid]
[1]; [29]
  MIC: ~0.007 µg/mL
[2]; [30]
  MIC: 0.015 µg/mL
[3]; [31]
  MIC: ~0.007 µg/mL
[4]; [32]
  MIC: ~0.007 µg/mL
[5]; [33]
  MIC: 0.5 µg/mL
[6]; [34]
  MIC: 0.007 µg/mL
[7]
  MIC: 1 µg/mL
[8]; [35]
  MIC: 1 µg/mL
[9]; [36]
  MIC: 12.5 µg/mL
[24]; [37]
  ED50: < 21.5 mg/kg
[24]; [38]
  ED50: 21.5 to 46.5 mg/kg
[24]; [39]
  ED50: < 21.5 mg/kg
[24]; [40]
  ED50: ~465 mg/kg
[25]
  Cmax at 1 h: 5400 ng/mL
  Tmax: 1 h
  concentration at 1 h: 5400 ng/mL
  concentration at 4 h: 2200 ng/mL
  blood level: 2.2 µg/mL
[27]
  fraction bound to serum protein: ~0.5
[26]; 50 mg/kg intramuscular, rabbits
  amount of free drug in the serum compared with dicloxacillin: of the same order
[28]
  M.I.C. values, times less than dicloxacillin: 5 - 10 times
[15]
  MIC: 0.12 µg/mL
[16]
  MIC: 0.06 µg/mL
[17]; po
  ED50: 61.9 mg/kg
[17]; sc
  ED50: 5.11 mg/kg
[18]; ip
  ED50: 2.87 mg/kg
[18]; po
  ED50: ~200 mg/kg
[18]; sc
  ED50: > 215 mg/kg
[19]; ip
  ED50: 1.78 mg/kg
[19]; po
  ED50: > 215 mg/kg
[19]; sc
  ED50: 75 mg/kg
[20]; ip
  ED50: ~200 mg/kg
[21]; ip
  ED50: > 215 mg/kg
[22]; ip
  ED50: ~200 mg/kg
